This is an account of results in patent US20140179655A1, “SOLID ORAL DOSAGE FORM OF TE[…]” (Solural Pharma ApS, priority 2012, published 2014).

The structures appear in SMILES notation.

Series [1] is described as follows: Estimate of maximal amount of lymphatic absorbed TU. Particulars: 25% of solubility x 120 mg/g x 3.5 g triglyceride/10 h; formulation of 600 mg fat. From the text: The maximal amount of lymphatic absorbed TU can be estimated from the solubility of Testosterone Undecanoate in triglyceride and the transported triglyceride (Int. J. Pharm., vol. 34, 175-178, 1986).

The conditions of series [2]: cited from earlier work.

Regarding `CCCCCCCCCCC(=O)O[C@H]1CC[C@H]2[C@@H]3CCC4=CC(=O)CC[C@]4(C)[C@H]3CC[C@]12C` [Testosterone Undecanoate], in series [1], the “maximal amount of lymphatic absorbed TU” value is on record as approximately 100 mg. The solubility in triglyceride in series [2] is listed as 120 mg/g.
